Data: PubChem BioAssay AID1919008 (Molecular Pharmacology Branch, DTP, NCI, 2023)

Test system: DMS-114 complex spheroids with HUVEC/MSC, growth % test/control
Assay: Anticancer human tumor DMS-114 cell line growth inhibition [AhR];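 note: spheroids exposed to agents for 7 days before readout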;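 for viability, T/C: 100% = DMSO vehicle control wells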
Conditions: for IC50: curve of first compound; for viability, T/C: stronger effect = lower value
Procedure, shortened: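 Complex tumor spheroids co-cultured with HUVEC and human MSC stroma; AhR antagonists tested in combination with standard-of-care and investigational agents. Top concentration at or near clinical Cmax (else 10 microM), half-log dilutions; growth expressed as percent test/control.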

[1] = second compound 0.1 µM, first compound 0.0316 µM
[2] = second compound 0.1 µM, first compound 0.1 µM
[3] = second compound 0.1 µM, first compound 0.316 µM
[4] = second compound 0.1 µM, first compound 1 µM
[5] = second compound 0.1 µM, first compound 3.16 µM
[6] = second compound 0.1 µM, first compound 10 µM
[7] = second compound 0.316 µM, first compound 0.0316 µM
[8] = second compound 0.316 µM, first compound 0.1 µM
[9] = second compound 0.316 µM, first compound 0.316 µM
[10] = second compound 0.316 µM, first compound 1 µM
[11] = second compound 0.316 µM, first compound 3.16 µM
[12] = second compound 0.316 µM, first compound 10 µM
[13] = second compound 1 µM, first compound 0.0316 µM
[14] = second compound 1 µM, first compound 0.1 µM
[15] = second compound 1 µM, first compound 0.316 µM
[16] = second compound 1 µM, first compound 1 µM
[17] = second compound 1 µM, first compound 3.16 µM
[18] = second compound 1 µM, first compound 10 µM
[19] = second compound 3.16 µM, first compound 0.0316 µM
[20] = second compound 3.16 µM, first compound 0.1 µM
[21] = second compound 3.16 µM, first compound 0.316 µM
[22] = second compound 3.16 µM, first compound 1 µM
[23] = second compound 3.16 µM, first compound 3.16 µM
[24] = second compound 3.16 µM, first compound 10 µM
[25] = second compound 10 µM, first compound 0.0316 µM
[26] = second compound 10 µM, first compound 0.1 µM
[27] = second compound 10 µM, first compound 0.316 µM
[28] = second compound 10 µM, first compound 1 µM
[29] = second compound 10 µM, first compound 3.16 µM
[30] = second compound 10 µM, first compound 10 µM

SMILES	IC50 (second compound 0.1 µM) [nM]	IC50 (second compound 0.316 µM) [nM]	IC50 (second compound 1 µM) [nM]	IC50 (second compound 3.16 µM) [nM]	IC50 (second compound 10 µM) [nM]	viability, T/C [1] [%]	viability, T/C [2] [%]	viability, T/C [3] [%]	viability, T/C [4] [%]	viability, T/C [5] [%]	viability, T/C [6] [%]	viability, T/C [7] [%]	viability, T/C [8] [%]	viability, T/C [9] [%]	viability, T/C [13] [%]	viability, T/C [14] [%]	viability, T/C [19] [%]	viability, T/C [20] [%]	viability, T/C [25] [%]	viability, T/C [26] [%]	also measured
COc1cc(Nc2ncc3c(n2)-c2ccc(Cl)cc2C(c2c(F)cccc2OC)=NC3)ccc1C(=O)O + Cc1ccccc1N=Nc1ccc(NC(=O)c2ccnn2C)c(C)c1	> 10000	> 10000	> 10000	> 10000	< 31.6	63	57.5	106	108	123	107	55	56.8	108	58.1	53.3	52.3	50.6	44.7	42	viability, T/C [10]: 115%; viability, T/C [11]: 111%; viability, T/C [12]: 98.4%; viability, T/C [15]: 104%; viability, T/C [16]: 107%; viability, T/C [17]: 102%; viability, T/C [18]: 106%; viability, T/C [21]: 103%; viability, T/C [22]: 95.8%; viability, T/C [23]: 106%; viability, T/C [24]: 95.8%; viability, T/C [27]: 84.7%; viability, T/C [28]: 87.1%; viability, T/C [29]: 85%; viability, T/C [30]: 76.3%
Cn1ncnc1C1c2n[nH]c(=O)c3cc(F)cc(c23)NC1c1ccc(F)cc1 (stereo not given) + Cc1ccccc1N=Nc1ccc(NC(=O)c2ccnn2C)c(C)c1	> 100	> 100	> 100	> 100	> 100	120	107	–	–	–	–	104	112	–	111	113	98.3	104	95.1	95	viability, T/C (second compound 0.1 µM, first compound 0.000316 µM): 118%; viability, T/C (second compound 0.1 µM, first compound 0.001 µM): 101%; viability, T/C (second compound 0.1 µM, first compound 0.00316 µM): 111%; viability, T/C (second compound 0.1 µM, first compound 0.01 µM): 110%; viability, T/C (second compound 0.316 µM, first compound 0.000316 µM): 104%; viability, T/C (second compound 0.316 µM, first compound 0.001 µM): 105%; viability, T/C (second compound 0.316 µM, first compound 0.00316 µM): 104%; viability, T/C (second compound 0.316 µM, first compound 0.01 µM): 113%; viability, T/C (second compound 1 µM, first compound 0.000316 µM): 103%; viability, T/C (second compound 1 µM, first compound 0.001 µM): 112%; viability, T/C (second compound 1 µM, first compound 0.00316 µM): 108%; viability, T/C (second compound 1 µM, first compound 0.01 µM): 101%; viability, T/C (second compound 3.16 µM, first compound 0.000316 µM): 96%; viability, T/C (second compound 3.16 µM, first compound 0.001 µM): 104%; viability, T/C (second compound 3.16 µM, first compound 0.00316 µM): 102%; viability, T/C (second compound 3.16 µM, first compound 0.01 µM): 111%; viability, T/C (second compound 10 µM, first compound 0.000316 µM): 93.5%; viability, T/C (second compound 10 µM, first compound 0.001 µM): 93.3%; viability, T/C (second compound 10 µM, first compound 0.00316 µM): 90%; viability, T/C (second compound 10 µM, first compound 0.01 µM): 96.2%
NS(=O)(=O)OCC1CC(n2ccc3c(NC4CCc5ccccc54)ncnc32)CC1O (stereo not given) + Cc1ccccc1N=Nc1ccc(NC(=O)c2ccnn2C)c(C)c1	229	203	201	228	215	137	84.8	37	18.4	19	16.1	113	73.9	34.3	119	76.7	128	80.9	86.5	77.5	viability, T/C [10]: 22.8%; viability, T/C [11]: 17.2%; viability, T/C [12]: 16.3%; viability, T/C [15]: 32%; viability, T/C [16]: 23.4%; viability, T/C [17]: 21.6%; viability, T/C [18]: 17.3%; viability, T/C [21]: 37.6%; viability, T/C [22]: 24.1%; viability, T/C [23]: 19.9%; viability, T/C [24]: 21.3%; viability, T/C [27]: 35.9%; viability, T/C [28]: 25.7%; viability, T/C [29]: 22.4%; viability, T/C [30]: 20.1%
